{
  "source": "patent US7572797B2",
  "about": "“Amino substituted pyrazine derivatives for the treatment of pain” (Pfizer Inc., priority 2005, dated 2009)",
  "key": {"Human Nav1.8": {"target": "T1, Human Nav1.8 (Homo sapiens, UniProt Q9Y5Y9)", "T1 construct": "expressed in transfected cells", "T1 sequence (Q9Y5Y9 whole entry)": "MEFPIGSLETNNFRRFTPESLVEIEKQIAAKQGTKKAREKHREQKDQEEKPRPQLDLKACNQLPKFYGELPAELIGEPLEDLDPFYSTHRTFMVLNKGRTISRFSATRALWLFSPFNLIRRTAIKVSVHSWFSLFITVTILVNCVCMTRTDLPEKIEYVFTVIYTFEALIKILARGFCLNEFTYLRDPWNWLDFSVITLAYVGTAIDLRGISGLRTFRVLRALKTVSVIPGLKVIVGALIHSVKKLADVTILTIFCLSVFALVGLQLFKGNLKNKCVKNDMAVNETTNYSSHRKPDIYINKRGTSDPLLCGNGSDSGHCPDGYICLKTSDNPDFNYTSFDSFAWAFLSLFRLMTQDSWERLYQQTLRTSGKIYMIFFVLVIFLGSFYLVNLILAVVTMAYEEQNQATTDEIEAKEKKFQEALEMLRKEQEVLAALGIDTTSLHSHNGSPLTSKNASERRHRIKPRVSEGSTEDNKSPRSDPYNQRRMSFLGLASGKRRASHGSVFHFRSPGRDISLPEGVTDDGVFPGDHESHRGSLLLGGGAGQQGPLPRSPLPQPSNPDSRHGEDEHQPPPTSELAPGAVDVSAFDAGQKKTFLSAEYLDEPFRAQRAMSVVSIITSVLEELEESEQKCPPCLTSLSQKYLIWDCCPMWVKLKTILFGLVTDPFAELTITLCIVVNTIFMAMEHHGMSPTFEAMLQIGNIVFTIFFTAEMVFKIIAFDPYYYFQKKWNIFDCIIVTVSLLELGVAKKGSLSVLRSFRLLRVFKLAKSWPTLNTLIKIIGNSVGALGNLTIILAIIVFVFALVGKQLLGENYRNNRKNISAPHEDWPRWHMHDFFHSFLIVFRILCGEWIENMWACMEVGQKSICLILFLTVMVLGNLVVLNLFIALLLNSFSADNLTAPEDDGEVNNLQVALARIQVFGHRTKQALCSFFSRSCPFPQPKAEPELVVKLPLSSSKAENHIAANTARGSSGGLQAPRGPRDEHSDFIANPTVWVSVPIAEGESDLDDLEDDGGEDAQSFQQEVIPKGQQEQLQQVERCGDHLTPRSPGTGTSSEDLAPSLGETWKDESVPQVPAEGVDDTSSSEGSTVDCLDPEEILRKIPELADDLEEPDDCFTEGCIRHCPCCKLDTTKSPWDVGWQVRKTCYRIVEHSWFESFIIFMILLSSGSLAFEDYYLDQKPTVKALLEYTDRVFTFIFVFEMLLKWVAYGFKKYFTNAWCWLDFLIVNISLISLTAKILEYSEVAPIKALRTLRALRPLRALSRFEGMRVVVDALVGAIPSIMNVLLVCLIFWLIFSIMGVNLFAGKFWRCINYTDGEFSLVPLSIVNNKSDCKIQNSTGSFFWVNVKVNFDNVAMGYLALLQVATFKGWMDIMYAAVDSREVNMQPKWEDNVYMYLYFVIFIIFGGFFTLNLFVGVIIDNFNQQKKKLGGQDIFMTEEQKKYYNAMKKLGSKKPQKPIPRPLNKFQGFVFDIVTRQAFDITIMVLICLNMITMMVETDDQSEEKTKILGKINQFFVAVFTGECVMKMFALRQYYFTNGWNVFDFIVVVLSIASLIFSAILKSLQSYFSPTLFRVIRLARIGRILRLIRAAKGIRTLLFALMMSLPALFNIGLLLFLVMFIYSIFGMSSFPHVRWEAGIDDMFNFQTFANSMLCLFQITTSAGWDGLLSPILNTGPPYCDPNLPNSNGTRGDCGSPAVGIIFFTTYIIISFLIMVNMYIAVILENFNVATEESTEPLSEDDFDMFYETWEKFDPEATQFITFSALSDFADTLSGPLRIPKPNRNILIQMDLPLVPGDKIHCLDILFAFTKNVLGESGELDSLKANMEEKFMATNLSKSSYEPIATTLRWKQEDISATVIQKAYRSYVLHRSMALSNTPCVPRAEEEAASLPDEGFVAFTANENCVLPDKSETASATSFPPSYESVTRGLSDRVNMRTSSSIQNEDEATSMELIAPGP", "assay": "VIPR assay for Nav1.8 (FRET membrane potential, deltamethrin as opener)", "format": "cell-based", "details": "automated dissolution procedure; for pIC50: HEK293 cells expressing human Nav1.8, average of replicates; for Selectivity Ratio: TTX-S IC50 / NaV1.8 IC50"}, "[1]": {"system": "tetrodotoxin-sensitive voltage-gated sodium channels including NaV1.2, NaV1.3 and NaV1.7 (SHSY-5Y cell line)", "assay": "TTX-S assay in SHSY-5Y cell line (VIPR procedure, veratridine as opener)", "format": "cell-based", "details": "read-out: TTX-S IC50; SHSY-5Y cells; veratridine 50 μM; automated dissolution procedure; average of replicates"}},
  "note": "pIC50: −log10 of the molar value.",
  "data": [
    {"compound": "COc1cc(Cl)cc(-c2ncc(NC(=O)c3ccnn3C)nc2N)c1Cl", "note": "[Example 6, N-[6-amino-5-(2,5-dichloro-3-methoxyphenyl)pyrazin-2-yl]-1-methyl-1H-pyrazole-5-carboxamide]", "values": [
      {"measurement": "pIC50", "setting": "Human Nav1.8", "value": 5.33},
      {"measurement": "Selectivity Ratio", "setting": "Human Nav1.8", "value": ">4.25"},
      {"measurement": "pIC50", "setting": "[1]", "value": "< 4.70"}
    ]},
    {"compound": "COc1cc(Cl)c(Cl)c(-c2ncc(NC(=O)c3ccnn3C)nc2N)c1", "note": "[Example 12, N-[6-Amino-5-(2,3-dichloro-5-methoxyphenyl)pyrazin-2-yl]-1-methyl-1H-pyrazole-5-carboxamide]", "values": [
      {"measurement": "pIC50", "setting": "Human Nav1.8", "value": 5.88},
      {"measurement": "Selectivity Ratio", "setting": "Human Nav1.8", "value": 12.67},
      {"measurement": "pIC50", "setting": "[1]", "value": 4.78}
    ]},
    {"compound": "COc1ccc(Cl)c(-c2ncc(NC(=O)c3cnoc3)nc2N)c1", "note": "[Example 33, N-[6-amino-5-(2-chloro-5-methoxyphenyl)pyrazin-2-yl]isoxazole-4-carboxamide]", "values": [
      {"measurement": "pIC50", "setting": "Human Nav1.8", "value": "< 4.64"},
      {"measurement": "Selectivity Ratio", "setting": "Human Nav1.8", "value": "->1.33"},
      {"measurement": "pIC50", "setting": "[1]", "value": "< 4.52"}
    ]},
    {"compound": "COc1ccc(Cl)c(-c2ncc(NC(=O)c3conc3C)nc2N)c1", "note": "[Example 28, N-[6-amino-5-(2-chloro-5-methoxyphenyl)pyrazin-2-yl]-3-methylisoxazole-4-carboxamide]", "values": [
      {"measurement": "pIC50", "setting": "Human Nav1.8", "value": 5.58},
      {"measurement": "Selectivity Ratio", "setting": "Human Nav1.8", "value": 9.81},
      {"measurement": "pIC50", "setting": "[1]", "value": 4.59}
    ]},
    {"compound": "COc1ccc(Cl)c(-c2ncc(NC(=O)c3ccon3)nc2N)c1", "note": "[Example 37, N-[6-amino-5-(2-chloro-5-methoxyphenyl)pyrazin-2-yl]isoxazole-3-carboxamide]", "values": [
      {"measurement": "pIC50", "setting": "Human Nav1.8", "value": "< 4.53"},
      {"measurement": "pIC50", "setting": "[1]", "value": "< 4.52"}
    ]},
    {"compound": "Cn1nccc1C(=O)Nc1cnc(-c2cccc(Cl)c2Cl)c(N)n1", "note": "[Example 5, N-[6-amino-5-(2,3-dichlorophenyl)pyrazin-2-yl]-1-methyl-1H-pyrazole-5-carboxamide]", "values": [
      {"measurement": "pIC50", "setting": "Human Nav1.8", "value": 5.21},
      {"measurement": "Selectivity Ratio", "setting": "Human Nav1.8", "value": "->4.28"},
      {"measurement": "pIC50", "setting": "[1]", "value": "< 4.58"}
    ]},
    {"compound": "Cc1oncc1C(=O)Nc1cnc(-c2ccccc2Cl)c(N)n1", "note": "[Example 50, N-[6-amino-5-(2-chlorophenyl)pyrazin-2-yl]-5-methylisoxazole-4-carboxamide]", "values": [
      {"measurement": "pIC50", "setting": "Human Nav1.8", "value": 4.99},
      {"measurement": "Selectivity Ratio", "setting": "Human Nav1.8", "value": ">2.90"},
      {"measurement": "pIC50", "setting": "[1]", "value": "< 4.52"}
    ]},
    {"compound": "COc1cc(Cl)cc(-c2ncc(NC(=O)c3cnoc3)nc2N)c1Cl", "note": "[Example 48, N-[6-amino-5-(2,5-dichloro-3-methoxyphenyl)pyrazin-2-yl]isoxazole-4-carboxamide]", "values": [
      {"measurement": "pIC50", "setting": "Human Nav1.8", "value": 5.09},
      {"measurement": "Selectivity Ratio", "setting": "Human Nav1.8", "value": ">3.75"},
      {"measurement": "pIC50", "setting": "[1]", "value": "< 4.52"}
    ]},
    {"compound": "COc1ccc(Cl)c(-c2ncc(NC(=O)c3cnoc3C)nc2N)c1", "note": "[Example 15, N-[6-amino-5-(2-chloro-5-methoxyphenyl)pyrazin-2-yl]-5-methylisoxazole-4-carboxamide]", "values": [
      {"measurement": "pIC50", "setting": "Human Nav1.8", "value": "< 4.52"},
      {"measurement": "pIC50", "setting": "[1]", "value": "< 4.52"}
    ]},
    {"compound": "Cc1nocc1C(=O)Nc1cnc(-c2cc(Cl)cc3c2OCCO3)c(N)n1", "note": "[Example 21, N-[6-amino-5-(7-chloro-2,3-dihydro-1,4-benzodioxin-5-yl)pyrazin-2-yl]-3-methylisoxazole-4-carboxamide]", "values": [
      {"measurement": "pIC50", "setting": "Human Nav1.8", "value": 5.32},
      {"measurement": "Selectivity Ratio", "setting": "Human Nav1.8", "value": 4.35},
      {"measurement": "pIC50", "setting": "[1]", "value": 4.68}
    ]},
    {"compound": "CCc1noc(C)c1C(=O)Nc1cnc(-c2cc(OC)ccc2Cl)c(N)n1", "note": "[Example 31, N-[6-amino-5-(2-chloro-5-methoxyphenyl)pyrazin-2-yl]-3-ethyl-5-methylisoxazole-4-carboxamide]", "values": [
      {"measurement": "pIC50", "setting": "Human Nav1.8", "value": 5.27},
      {"measurement": "Selectivity Ratio", "setting": "Human Nav1.8", "value": ">5.22"},
      {"measurement": "pIC50", "setting": "[1]", "value": "< 4.55"}
    ]},
    {"compound": "CC(C)c1oncc1C(=O)Nc1cnc(-c2ccccc2Cl)c(N)n1", "note": "[Example 51, N-[6-amino-5-(2-chlorophenyl)pyrazin-2-yl]-5-isopropylisoxazole-4-carboxamide]", "values": [
      {"measurement": "pIC50", "setting": "Human Nav1.8", "value": 6.02},
      {"measurement": "Selectivity Ratio", "setting": "Human Nav1.8", "value": ">21.89"},
      {"measurement": "pIC50", "setting": "[1]", "value": "< 4.68"}
    ]},
    {"compound": "COc1ccc(Cl)c(-c2ncc(NC(=O)c3c(C)noc3C)nc2N)c1", "note": "[Example 36, N-[6-amino-5-(2-chloro-5-methoxyphenyl)pyrazin-2-yl]-3,5-dimethylisoxazole-4-carboxamide]", "values": [
      {"measurement": "pIC50", "setting": "Human Nav1.8", "value": 4.86},
      {"measurement": "Selectivity Ratio", "setting": "Human Nav1.8", "value": ">2.18"},
      {"measurement": "pIC50", "setting": "[1]", "value": "< 4.52"}
    ]},
    {"compound": "COc1ccc(Cl)c(-c2ncc(NC(=O)c3ccno3)nc2N)c1", "note": "[Example 32, N-[6-amino-5-(2-chloro-5-methoxyphenyl)pyrazin-2-yl]isoxazole-5-carboxamide]", "values": [
      {"measurement": "pIC50", "setting": "Human Nav1.8", "value": 5.21},
      {"measurement": "Selectivity Ratio", "setting": "Human Nav1.8", "value": ">4.93"},
      {"measurement": "pIC50", "setting": "[1]", "value": "< 4.52"}
    ]}
  ]
}
